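Values below derive from 48-hour exposures of cells grown in 96-well plates, with endpoints linearly interpolated between the two concentrations bracketing the appropriate inhibition level. GI50 = concentration required for 50% inhibition of growth. Definition used: TGI = concentration required for complete inhibition of growth.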
Tests used:
Assay in all cases: NCI-60 cell line screen, 48 h
[1] = test system: EKVX NSCLC
[2] = test system: MALME-3M melanoma
[3] = test system: OVCAR-4 ovarian
[4] = test system: PC-3 prostate
[5] = test system: RXF 393 renal
[6] = test system: SF-295 CNS
[7] = test system: SK-MEL-28 melanoma
[8] = test system: SK-OV-3 ovarian
[9] = test system: SN12C renal
[10] = test system: UO-31 renal

| Structure (SMILES) | GI50 [1] [µM] | TGI [1] [µM] | GI50 [2] [µM] | TGI [2] [µM] | GI50 [3] [µM] | TGI [3] [µM] | GI50 [4] [µM] | TGI [4] [µM] | GI50 [5] [µM] | TGI [5] [µM] | GI50 [6] [µM] | TGI [6] [µM] | GI50 [7] [µM] | TGI [7] [µM] | GI50 [8] [µM] | TGI [8] [µM] | GI50 [9] [µM] | TGI [9] [µM] | GI50 [10] [µM] | TGI [10] [µM] |
| --- | --- | --- | --- | --- | --- | --- | --- | --- | --- | --- | --- | --- | --- | --- | --- | --- | --- | --- | --- | --- |
| CCOC(=O)c1c(-c2ccccc2)n2c(=O)cc(C)c3c(O)c(O)cc1c32 | 8.73 | 24.3 | 13.7 | 33.6 | 2.46 | 11.4 | 6.94 | 26 | 11.9 | 30.9 | 6.75 | > 100 | 12.7 | 29.3 | 16 | > 100 | 10.8 | 35.1 | 8.39 | 38.7 |
| O=C(Cc1cc(O)ccc1O)NO | > 100 | > 100 | 29.1 | > 100 | > 100 | > 100 | > 100 | > 100 | 71.7 | > 100 | 21.7 | 47.9 |  |  | > 100 | > 100 | 18.2 | 33.8 | > 100 | > 100 |
| O=C(O)CN1C(=O)OC(c2ccccc2)C1=O (stereo not drawn) |  | > 100 |  | > 100 |  | > 100 |  | > 100 |  | > 100 |  | > 100 |  | > 100 |  | > 100 |  | > 100 |  | > 100 |
| c1cc[n+](Cc2c3ccccc3cc3c2ccc2ccccc23)cc1 | 19.5 | > 100 | 1.56 | 3.91 | 3.57 | 14.3 | 2.8 | 14.4 | 8.61 | 47.5 | 3.42 | 23.2 | 2.11 | 5.5 | 13.6 | 59.1 | 0.506 | 4.73 | 27.5 | > 100 |
| COc1cccc2nc(Nc3cccc(NC(=O)c4ccc(N5CCN(C)CC5)c(C(F)(F)F)c4)c3)ccc12 | 1.83 | 6.92 | 0.816 | 1.62 | 1.43 | 6.67 | 1.26 | 4.51 | 0.802 | 2.96 | 0.967 | 1.92 | 0.896 | 1.64 | 1.73 | 6.11 | 1.7 | 7.47 | 0.734 | 1.49 |
| COc1ccc2c(c1)OCC1c3cc(OC)c4ccccc4c3OC21 (stereo not drawn) | 25.1 | > 100 | 5.01 | > 100 | 16.5 | > 100 | 8.82 | > 100 | 9.41 | 46 | 2 | 6.91 | 9.13 | > 100 | 15.9 | > 100 | 17.1 | 77.4 | 22.2 | > 100 |
| C=C(C(=O)c1ccccc1)C(NC(C)(C)C)c1ccccc1 (stereo not drawn) | 3.53 | 13.7 | 1.91 | 4.33 | 4.72 | 17.1 | 3.26 | 13 | 1.21 | 2.69 | 2.9 | 10.8 | 1.84 | 3.72 | 3.76 | 20.1 | 2.12 | 5.38 | 1.38 | 2.85 |
| CC(C)n1cc(-c2ccc3c(c2)N(C)CC3)c2c(NS(=O)(=O)c3ccn(C)n3)ccnc21 | 28.2 | > 100 | > 100 | > 100 | 52.5 | > 100 | 45.2 | > 100 | 29.1 | > 100 | 27.4 | > 100 | 34.5 | > 100 | > 100 | > 100 | 91.8 | > 100 | 31.7 | > 100 |
| CC(=O)OC1C(O)C(C)OC(OC2C(OC(=O)C3CCC4C(C3)OC3(CC(OC(=O)/C=C/c5ccccc5)C(C)CO3)C43CO3)OC(C)C(O)C2OC(C)=O)C1O (stereo not drawn) |  | 0.074 |  | < 0.0185 |  | 0.051 |  | 0.0442 |  | 0.121 |  | 0.145 |  | 0.0305 |  | 0.0928 |  | 0.125 |  | 1.6 |
| CCCCCc1cc(/C=C2/N=C(c3ccc[nH]3)C=C2OC)[nH]c1C |  | 1.4 |  | 0.275 |  | 0.351 |  | 1.06 |  | 0.197 |  | < 0.0282 |  | 0.805 |  | 1.13 |  | 0.844 |  | < 0.0193 |
| COc1ccc2[nH]c(C(=O)OCc3ccc4c(Br)cc(Br)c(O)c4n3)cc2c1 | 1.41 | 2.82 | 1.45 | 2.85 | 0.895 | 2.25 | 0.73 | 2.27 | 0.486 | 1.8 | 2.02 | 5.33 | 1.26 | 2.53 | 3.16 | 14.4 | 0.617 | 2.02 | 0.36 | 1.85 |
| CNC(=O)/C=C/C1=CN2C(=O)c3ccc(C)c(O)c3NC(OC)C2C1 (stereo not drawn) |  | < 0.0344 |  | 0.0448 |  | 0.0244 |  | 0.447 |  | < 0.01 |  | 1.07 |  | < 0.0131 |  | > 8.66 |  | 12.1 |  | 0.265 |
| CO/N=C(/C)COc1ccc2c(c1)oc(=O)c1cc(OC)ccc12 | > 100 | > 100 | > 100 | > 100 | 47.1 | > 100 | > 100 | > 100 | > 100 | > 100 | 82.4 | > 100 | > 100 | > 100 | > 100 | > 100 | > 100 | > 100 | 73.8 | > 100 |
